Results taken from ChEMBL document CHEMBL1137892, “Pyrimidine methyl anilines: selective potentiators for the metabotropic glutamate 2 receptor” (Bioorg Med Chem Lett, 2004).

Experiments:
Assay type in all cases: functional
[1] = biological target: Metabotropic glutamate receptor 2 (Homo sapiens) (UniProt Q14416); assay: Level of potentiation of Metabotropic glutamate receptor 2 was determined by measuring the percentage activation of [35S]GTP-gamma-S, in the presence of 10 uM glutamate
[2] = biological target: Metabotropic glutamate receptor 2 (Homo sapiens) (UniProt Q14416); assay: Binding potency against Metabotropic glutamate receptor 2 was determined by measuring the concentration required to activate 50% of [35S]GTP-gamma-S, in presence of 10 uM glutamate
[3] = biological target: Metabotropic glutamate receptor 3 (Homo sapiens) (UniProt Q14832); assay: Binding potency against Metabotropic glutamate receptor 3 was determined by measuring the concentration required to activate 50% of [35S]GTP-gamma-S, in presence of glutamate; inactive
Chain of Metabotropic glutamate receptor 3 (Homo sapiens) (Q14832 23-879 limits assumed): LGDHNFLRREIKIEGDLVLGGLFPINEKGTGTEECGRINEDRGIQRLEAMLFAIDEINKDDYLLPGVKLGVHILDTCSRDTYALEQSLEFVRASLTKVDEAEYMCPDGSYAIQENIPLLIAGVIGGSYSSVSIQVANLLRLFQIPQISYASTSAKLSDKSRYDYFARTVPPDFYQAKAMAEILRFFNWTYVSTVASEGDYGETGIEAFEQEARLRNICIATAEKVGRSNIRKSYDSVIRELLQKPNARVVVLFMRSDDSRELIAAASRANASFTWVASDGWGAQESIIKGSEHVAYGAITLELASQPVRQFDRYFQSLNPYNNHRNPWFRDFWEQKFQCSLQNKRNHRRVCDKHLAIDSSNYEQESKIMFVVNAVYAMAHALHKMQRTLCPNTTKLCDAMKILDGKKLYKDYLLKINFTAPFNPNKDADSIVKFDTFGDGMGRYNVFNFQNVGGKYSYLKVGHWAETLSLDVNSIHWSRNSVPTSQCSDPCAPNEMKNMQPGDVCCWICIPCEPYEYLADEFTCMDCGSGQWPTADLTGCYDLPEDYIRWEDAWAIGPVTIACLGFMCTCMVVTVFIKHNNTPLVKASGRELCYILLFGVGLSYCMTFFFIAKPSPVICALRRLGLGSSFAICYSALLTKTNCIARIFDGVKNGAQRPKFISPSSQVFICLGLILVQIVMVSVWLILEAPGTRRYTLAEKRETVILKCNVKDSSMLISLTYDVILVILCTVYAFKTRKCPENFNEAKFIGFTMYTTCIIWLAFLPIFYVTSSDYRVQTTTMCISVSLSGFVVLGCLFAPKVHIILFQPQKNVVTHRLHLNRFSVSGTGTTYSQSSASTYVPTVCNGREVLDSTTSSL

Chain of Metabotropic glutamate receptor 2 (Homo sapiens) (Q14416 19-872 limits assumed): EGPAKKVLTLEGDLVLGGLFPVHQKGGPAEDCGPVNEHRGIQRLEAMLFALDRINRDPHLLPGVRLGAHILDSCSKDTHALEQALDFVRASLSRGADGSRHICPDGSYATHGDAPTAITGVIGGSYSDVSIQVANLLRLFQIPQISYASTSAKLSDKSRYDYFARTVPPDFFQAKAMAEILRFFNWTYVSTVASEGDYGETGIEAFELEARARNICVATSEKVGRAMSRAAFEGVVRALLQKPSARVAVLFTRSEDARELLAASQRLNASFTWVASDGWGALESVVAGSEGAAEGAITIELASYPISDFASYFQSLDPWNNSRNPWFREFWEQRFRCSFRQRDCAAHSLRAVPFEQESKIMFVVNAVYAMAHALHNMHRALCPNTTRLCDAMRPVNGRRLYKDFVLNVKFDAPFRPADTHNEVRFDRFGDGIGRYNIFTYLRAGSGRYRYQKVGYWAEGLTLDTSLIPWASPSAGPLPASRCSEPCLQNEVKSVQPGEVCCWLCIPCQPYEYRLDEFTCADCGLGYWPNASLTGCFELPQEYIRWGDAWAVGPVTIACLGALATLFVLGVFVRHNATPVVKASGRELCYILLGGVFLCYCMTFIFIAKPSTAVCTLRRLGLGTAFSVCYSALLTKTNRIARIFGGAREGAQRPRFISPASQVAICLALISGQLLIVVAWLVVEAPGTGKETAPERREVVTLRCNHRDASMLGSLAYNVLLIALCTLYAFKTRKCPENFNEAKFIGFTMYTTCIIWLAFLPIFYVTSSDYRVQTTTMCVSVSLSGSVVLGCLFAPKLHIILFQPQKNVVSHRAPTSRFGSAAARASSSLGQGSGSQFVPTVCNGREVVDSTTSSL

## O=S(=O)(CC(F)(F)F)N(Cc1cncnc1)c1cccc(OC2CCCC2)c1
[1]
  Potentiation: 60%
[2]
  ED50: 840 nM

## c1ccc(NCc2cncnc2)cc1
[1]
  Potentiation: 68%
[2]
  ED50: 9600 nM

## FC(F)(F)Oc1cccc(NCc2cncnc2)c1
[1]
  Potentiation: 26%
[2]
  ED50: 19000 nM

## COc1ccccc1Oc1ccc(N(Cc2cccnc2)S(=O)(=O)CC(F)(F)F)cc1
[1]
  Potentiation: 52%
[2]
  ED50: 1700 nM

## COc1ccccc1Oc1cccc(N(Cc2cncnc2)S(=O)(=O)CC(F)(F)F)c1
[1]
  Potentiation: 62%
[2]
  ED50: 760 nM

## CC(C)(C)[Si](C)(C)OCc1cccc(N(Cc2cncnc2)S(=O)(=O)CC(F)(F)F)c1
[1]
  Potentiation: 48%
[2]
  ED50: 660 nM

## c1ccc(Cc2cccc(NCc3cncnc3)c2)cc1
[1]
  Potentiation: 31%
[2]
  ED50: 710 nM

## O=S(=O)(CC(F)(F)F)N(Cc1cncnc1)c1cccc(Oc2ccccc2F)c1
[1]
  Potentiation: 46%
[2]
  ED50: 860 nM

## O=S(=O)(CC(F)(F)F)N(Cc1cncnc1)c1ccc(Oc2ccccc2)cc1
[1]
  Potentiation: 37%
[2]
  ED50: 560 nM

## O=C(OCc1cccc(N(Cc2cncnc2)S(=O)(=O)CC(F)(F)F)c1)c1ccccc1
[1]
  Potentiation: 39%
[2]
  ED50: 810 nM

## O=S(=O)(CC(F)(F)F)N(Cc1cncnc1)c1cccc(COc2ccccc2)c1
[1]
  Potentiation: 51%
[2]
  ED50: 1200 nM

## O=S(=O)(CC(F)(F)F)N(Cc1cncnc1)c1cccc(Cc2ccccc2)c1
[1]
  Potentiation: 43%
[2]
  ED50: 540 nM

## FC(F)(F)Oc1cccc(NCc2cnc3ccccc3c2)c1
[1]
  Potentiation: 40%
[2]
  ED50: 5200 nM

## O=S(=O)(CC(F)(F)F)N(Cc1cncnc1)c1cccc(Oc2ccccc2Br)c1
[1]
  Potentiation: 40%
[2]
  ED50: 1100 nM

## CCCC(C)Oc1cccc(NCc2cnc3ccccc3c2)c1 (stereo unspecified)
[1]
  Potentiation: 41%
[2]
  ED50: 4300 nM

## O=S(=O)(CC(F)(F)F)N(Cc1cncnc1)c1cccc(Oc2ccccc2)c1
[1]
  Potentiation: 52%
[2]
  ED50: 660 nM

## FC(F)(F)c1ccccc1Cc1cccc(NCc2cnc3ccccc3c2)c1
[1]
  Potentiation: 18%
[2]
  ED50: 1000 nM

## CCCC(C)Oc1cccc(N(Cc2cncnc2)S(=O)(=O)CC(F)(F)F)c1 (stereo unspecified)
[3]
  Concentration: 10 µM
[1]
  Potentiation: 31%
[2]
  ED50: 350 nM

## O=S(=O)(CC(F)(F)F)N(Cc1cncnc1)c1cccc(Oc2ccccc2C(F)(F)F)c1
[1]
  Potentiation: 73%
[2]
  ED50: 970 nM

## Cc1ccccc1Oc1cccc(N(Cc2cncnc2)S(=O)(=O)CC(F)(F)F)c1
[1]
  Potentiation: 53%
[2]
  ED50: 630 nM
